The values that follow come from ChEMBL document CHEMBL4325851, “Synthesis of aminopyrazole analogs and their evaluation as CDK inhibitors for cancer therapy” (Bioorg Med Chem Lett, 2018).

Assay [1] deals with Cyclin-dependent kinase 5/CDK5 activator 1 (Homo sapiens) (UniProt Q00535+Q15078). Kind of assay: Inhibition of CDK5/p35 (unknown origin) at 100 nM in presence of ATP relative to control. In kind it is protein-complex assay.
In assay [2] the test system is MIA PaCa-2. Kind of assay: Induction of apoptosis in human MIAPaCa2 cells assessed as increase in caspases 3/7 activity at 10 uM after 12 hrs by Caspase-Glo assay relative to control. In kind it is functional.
The test system of another assay is ASPC1. Kind of assay: Antiproliferative activity against human AsPC1 cells after 72 hrs by prestoblue assay. In kind it is functional, cell-based. Particulars: ASPC1, 72 h.
Assay [3] relates to MIA PaCa-2. The experiment in a line: Antiproliferative activity against human MIAPaCa2 cells after 72 hrs by prestoblue assay. In kind it is functional, cell-based. Particulars: MIA PaCa-2, 72 h.
Assay [4] is described as follows: Antiproliferative activity against human SUIT2 cells after 72 hrs by prestoblue assay. In kind it is functional, cell-based. Particulars: SUIT-2, 72 h.
A short description of assay [5]: Antiproliferative activity against human S2-013 cells after 72 hrs by prestoblue assay. In kind it is functional, cell-based.
Assay [6] concerns the target Cyclin-dependent kinase 2/cyclin E1 (Homo sapiens, UniProt P24941). The experiment in a line: Inhibition of CDK2/CyclinE (unknown origin) in presence of ATP. Type of assay: protein-complex assay.
In assay [7] the target is Cyclin-dependent kinase 5/CDK5 activator 1 (Homo sapiens, UniProt Q00535). The experiment in a line: Inhibition of CDK5/p35 (unknown origin) in presence of ATP. In kind it is protein-complex assay.
Assay [8] deals with Cyclin-dependent kinase 9 (Homo sapiens, UniProt P50750). Kind of assay: Inhibition of CDK9 (unknown origin).
Assay [9] has as its target Tyrosine-protein kinase BTK (Homo sapiens, UniProt Q06187). Kind of assay: Inhibition of BTK (unknown origin).
Assay [10] has as its target T1, Inhibitor of nuclear factor kappa-B kinase subunit beta (Homo sapiens, UniProt O14920).
T1 sequence (O14920 whole entry): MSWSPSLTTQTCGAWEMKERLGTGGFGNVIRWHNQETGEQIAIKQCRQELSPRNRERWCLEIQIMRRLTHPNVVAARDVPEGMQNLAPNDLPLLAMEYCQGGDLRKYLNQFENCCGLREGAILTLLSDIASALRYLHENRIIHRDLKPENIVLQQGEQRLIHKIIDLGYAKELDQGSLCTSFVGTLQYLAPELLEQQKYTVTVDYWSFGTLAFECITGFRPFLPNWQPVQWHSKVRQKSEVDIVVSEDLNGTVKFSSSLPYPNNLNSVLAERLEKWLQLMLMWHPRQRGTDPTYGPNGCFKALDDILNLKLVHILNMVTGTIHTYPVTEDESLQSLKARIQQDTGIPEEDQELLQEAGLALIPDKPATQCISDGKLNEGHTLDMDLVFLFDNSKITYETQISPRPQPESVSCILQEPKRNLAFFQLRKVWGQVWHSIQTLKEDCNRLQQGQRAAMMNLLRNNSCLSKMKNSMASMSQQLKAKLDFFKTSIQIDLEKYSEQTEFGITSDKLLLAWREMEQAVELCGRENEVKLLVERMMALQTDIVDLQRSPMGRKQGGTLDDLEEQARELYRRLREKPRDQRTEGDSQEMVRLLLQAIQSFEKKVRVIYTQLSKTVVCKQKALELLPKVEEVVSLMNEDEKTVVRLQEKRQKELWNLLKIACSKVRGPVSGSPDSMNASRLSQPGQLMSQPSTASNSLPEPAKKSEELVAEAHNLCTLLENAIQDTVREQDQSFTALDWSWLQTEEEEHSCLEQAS
The experiment in a line: Inhibition of IKKbeta (unknown origin).

In the next assay the target is T2, Aurora kinase A (Homo sapiens, UniProt O14965).
T2 sequence (O14965 whole entry): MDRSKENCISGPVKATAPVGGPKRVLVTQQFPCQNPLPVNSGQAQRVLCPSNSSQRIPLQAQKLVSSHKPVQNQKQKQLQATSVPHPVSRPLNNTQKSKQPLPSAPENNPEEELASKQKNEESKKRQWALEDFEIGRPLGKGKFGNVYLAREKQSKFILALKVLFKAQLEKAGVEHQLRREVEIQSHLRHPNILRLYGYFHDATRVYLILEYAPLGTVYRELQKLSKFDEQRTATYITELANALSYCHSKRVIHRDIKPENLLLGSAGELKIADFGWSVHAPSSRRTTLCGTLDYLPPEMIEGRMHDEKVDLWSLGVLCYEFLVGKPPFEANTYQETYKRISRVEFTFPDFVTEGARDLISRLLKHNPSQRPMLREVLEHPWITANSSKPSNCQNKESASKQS
Kind of assay: Inhibition of Aurora A (unknown origin).

A further assay addresses Aurora kinase B (Homo sapiens, UniProt Q96GD4). The experiment in a line: Inhibition of Aurora B (unknown origin).
The target in assay [11] is T3, Mitogen-activated protein kinase kinase kinase 12 (Homo sapiens, UniProt Q12852).
T3 sequence (Q12852 whole entry): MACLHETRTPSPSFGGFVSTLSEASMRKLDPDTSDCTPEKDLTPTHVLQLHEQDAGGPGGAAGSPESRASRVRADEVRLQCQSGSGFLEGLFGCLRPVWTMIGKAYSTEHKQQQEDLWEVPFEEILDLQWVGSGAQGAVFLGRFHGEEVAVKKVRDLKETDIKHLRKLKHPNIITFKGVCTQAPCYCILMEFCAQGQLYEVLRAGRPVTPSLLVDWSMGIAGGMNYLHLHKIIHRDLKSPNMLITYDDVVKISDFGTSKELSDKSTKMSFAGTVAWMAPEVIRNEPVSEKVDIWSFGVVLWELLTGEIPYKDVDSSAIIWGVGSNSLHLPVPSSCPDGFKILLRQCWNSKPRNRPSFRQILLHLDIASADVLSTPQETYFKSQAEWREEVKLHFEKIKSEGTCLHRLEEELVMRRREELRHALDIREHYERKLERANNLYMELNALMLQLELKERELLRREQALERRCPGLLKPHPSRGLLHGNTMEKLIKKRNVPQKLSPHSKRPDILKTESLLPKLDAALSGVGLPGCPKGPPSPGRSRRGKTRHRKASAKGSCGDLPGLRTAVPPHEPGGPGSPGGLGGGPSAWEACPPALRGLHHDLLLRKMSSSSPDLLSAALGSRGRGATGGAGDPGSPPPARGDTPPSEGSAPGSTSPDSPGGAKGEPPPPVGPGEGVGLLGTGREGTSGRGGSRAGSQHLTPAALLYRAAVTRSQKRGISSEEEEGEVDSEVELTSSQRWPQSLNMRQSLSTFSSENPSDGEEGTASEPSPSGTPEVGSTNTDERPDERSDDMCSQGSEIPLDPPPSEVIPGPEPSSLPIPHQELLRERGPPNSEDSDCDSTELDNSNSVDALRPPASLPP
Kind of assay: Inhibition of DLK (unknown origin).

The target in assay [12] is T4, Tyrosine-protein kinase ITK/TSK (Homo sapiens, UniProt Q08881).
T4 sequence (Q08881 whole entry): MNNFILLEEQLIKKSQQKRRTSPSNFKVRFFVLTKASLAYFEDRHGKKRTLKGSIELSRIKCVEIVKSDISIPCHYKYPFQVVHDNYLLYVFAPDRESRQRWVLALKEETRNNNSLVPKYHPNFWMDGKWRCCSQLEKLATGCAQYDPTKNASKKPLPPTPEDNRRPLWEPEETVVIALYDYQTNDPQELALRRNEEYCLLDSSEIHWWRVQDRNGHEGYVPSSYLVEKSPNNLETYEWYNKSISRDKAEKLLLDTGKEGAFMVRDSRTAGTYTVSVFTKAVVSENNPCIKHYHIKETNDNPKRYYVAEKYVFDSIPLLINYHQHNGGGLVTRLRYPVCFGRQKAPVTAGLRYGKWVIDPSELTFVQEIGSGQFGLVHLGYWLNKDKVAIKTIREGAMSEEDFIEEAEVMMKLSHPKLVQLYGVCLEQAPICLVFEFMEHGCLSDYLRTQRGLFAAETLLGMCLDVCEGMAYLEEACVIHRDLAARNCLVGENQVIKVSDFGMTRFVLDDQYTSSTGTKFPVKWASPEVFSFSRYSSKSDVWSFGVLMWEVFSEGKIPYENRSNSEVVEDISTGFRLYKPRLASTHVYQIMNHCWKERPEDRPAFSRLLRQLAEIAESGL
The experiment in a line: Inhibition of ITK (unknown origin).

The target in assay [13] is Mitogen-activated protein kinase 10 (Homo sapiens, UniProt P53779). Kind of assay: Inhibition of JNK3 (unknown origin) after 22 mins by homogeneous time-resolved fluorescence assay.
In assay [14] the target is Mitogen-activated protein kinase 14 (Homo sapiens, UniProt Q16539). Kind of assay: Inhibition of MAPK14 (unknown origin) after 22 mins by homogeneous time-resolved fluorescence assay.
In assay [15] the target is Serine/threonine-protein kinase PAK 1 (Homo sapiens, UniProt Q13153). The experiment in a line: Inhibition of PAK1 (unknown origin).
Assay [16] concerns the target High affinity nerve growth factor receptor (Homo sapiens, UniProt P04629). The experiment in a line: Inhibition of TRKA (unknown origin).
Assay [17] deals with Leucine-rich repeat serine/threonine-protein kinase 2 (Homo sapiens, UniProt Q5S007). Kind of assay: Inhibition of LRRK2 (unknown origin).
For assay [18], the species on record is Homo sapiens. Kind of assay: Selectivity ratio of IC50 for CDK9 (unknown origin) to IC50 for CDK2/CyclinE (unknown origin).
For assay [19], the species on record is Homo sapiens. The experiment in a line: Selectivity ratio of IC50 for CDK9 (unknown origin) to IC50 for CDK5/p35 (unknown origin).
The subject of another assay is BXPC-3. Kind of assay: Antiproliferative activity against human BxPC3 cells after 72 hrs by prestoblue assay. In kind it is functional, cell-based. The following applies: BXPC-3, 72 h.

Sequence of Cyclin-dependent kinase 5/CDK5 activator 1 (Homo sapiens) (Q00535 whole entry): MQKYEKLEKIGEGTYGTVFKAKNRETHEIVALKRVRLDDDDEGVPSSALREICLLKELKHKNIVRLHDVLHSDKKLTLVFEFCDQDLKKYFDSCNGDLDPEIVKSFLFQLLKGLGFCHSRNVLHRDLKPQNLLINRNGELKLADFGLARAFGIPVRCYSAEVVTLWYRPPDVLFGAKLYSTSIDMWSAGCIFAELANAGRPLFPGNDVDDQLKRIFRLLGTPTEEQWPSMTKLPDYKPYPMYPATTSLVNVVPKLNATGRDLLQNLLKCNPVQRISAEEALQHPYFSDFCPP
Sequence of Cyclin-dependent kinase 5/CDK5 activator 1 (Homo sapiens) (Q15078 99-307 partner limits assumed): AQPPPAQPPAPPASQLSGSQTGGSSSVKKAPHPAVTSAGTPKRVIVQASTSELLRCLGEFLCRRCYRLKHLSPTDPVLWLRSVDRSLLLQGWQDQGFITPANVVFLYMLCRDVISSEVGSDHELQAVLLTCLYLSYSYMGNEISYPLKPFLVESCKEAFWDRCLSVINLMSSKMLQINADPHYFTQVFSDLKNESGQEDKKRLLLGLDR
Sequence of Aurora kinase B (Q96GD4 whole entry): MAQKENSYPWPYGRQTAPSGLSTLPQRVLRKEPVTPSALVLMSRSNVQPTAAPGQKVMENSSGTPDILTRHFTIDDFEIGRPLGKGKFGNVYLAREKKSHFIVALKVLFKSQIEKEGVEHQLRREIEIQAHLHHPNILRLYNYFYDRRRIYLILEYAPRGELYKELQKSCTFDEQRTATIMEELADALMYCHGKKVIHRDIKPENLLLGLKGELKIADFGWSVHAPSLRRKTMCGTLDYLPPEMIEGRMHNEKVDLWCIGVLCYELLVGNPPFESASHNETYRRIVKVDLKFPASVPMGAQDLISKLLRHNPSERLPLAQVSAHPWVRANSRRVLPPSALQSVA
Sequence of Leucine-rich repeat serine/threonine-protein kinase 2 (Q5S007 whole entry): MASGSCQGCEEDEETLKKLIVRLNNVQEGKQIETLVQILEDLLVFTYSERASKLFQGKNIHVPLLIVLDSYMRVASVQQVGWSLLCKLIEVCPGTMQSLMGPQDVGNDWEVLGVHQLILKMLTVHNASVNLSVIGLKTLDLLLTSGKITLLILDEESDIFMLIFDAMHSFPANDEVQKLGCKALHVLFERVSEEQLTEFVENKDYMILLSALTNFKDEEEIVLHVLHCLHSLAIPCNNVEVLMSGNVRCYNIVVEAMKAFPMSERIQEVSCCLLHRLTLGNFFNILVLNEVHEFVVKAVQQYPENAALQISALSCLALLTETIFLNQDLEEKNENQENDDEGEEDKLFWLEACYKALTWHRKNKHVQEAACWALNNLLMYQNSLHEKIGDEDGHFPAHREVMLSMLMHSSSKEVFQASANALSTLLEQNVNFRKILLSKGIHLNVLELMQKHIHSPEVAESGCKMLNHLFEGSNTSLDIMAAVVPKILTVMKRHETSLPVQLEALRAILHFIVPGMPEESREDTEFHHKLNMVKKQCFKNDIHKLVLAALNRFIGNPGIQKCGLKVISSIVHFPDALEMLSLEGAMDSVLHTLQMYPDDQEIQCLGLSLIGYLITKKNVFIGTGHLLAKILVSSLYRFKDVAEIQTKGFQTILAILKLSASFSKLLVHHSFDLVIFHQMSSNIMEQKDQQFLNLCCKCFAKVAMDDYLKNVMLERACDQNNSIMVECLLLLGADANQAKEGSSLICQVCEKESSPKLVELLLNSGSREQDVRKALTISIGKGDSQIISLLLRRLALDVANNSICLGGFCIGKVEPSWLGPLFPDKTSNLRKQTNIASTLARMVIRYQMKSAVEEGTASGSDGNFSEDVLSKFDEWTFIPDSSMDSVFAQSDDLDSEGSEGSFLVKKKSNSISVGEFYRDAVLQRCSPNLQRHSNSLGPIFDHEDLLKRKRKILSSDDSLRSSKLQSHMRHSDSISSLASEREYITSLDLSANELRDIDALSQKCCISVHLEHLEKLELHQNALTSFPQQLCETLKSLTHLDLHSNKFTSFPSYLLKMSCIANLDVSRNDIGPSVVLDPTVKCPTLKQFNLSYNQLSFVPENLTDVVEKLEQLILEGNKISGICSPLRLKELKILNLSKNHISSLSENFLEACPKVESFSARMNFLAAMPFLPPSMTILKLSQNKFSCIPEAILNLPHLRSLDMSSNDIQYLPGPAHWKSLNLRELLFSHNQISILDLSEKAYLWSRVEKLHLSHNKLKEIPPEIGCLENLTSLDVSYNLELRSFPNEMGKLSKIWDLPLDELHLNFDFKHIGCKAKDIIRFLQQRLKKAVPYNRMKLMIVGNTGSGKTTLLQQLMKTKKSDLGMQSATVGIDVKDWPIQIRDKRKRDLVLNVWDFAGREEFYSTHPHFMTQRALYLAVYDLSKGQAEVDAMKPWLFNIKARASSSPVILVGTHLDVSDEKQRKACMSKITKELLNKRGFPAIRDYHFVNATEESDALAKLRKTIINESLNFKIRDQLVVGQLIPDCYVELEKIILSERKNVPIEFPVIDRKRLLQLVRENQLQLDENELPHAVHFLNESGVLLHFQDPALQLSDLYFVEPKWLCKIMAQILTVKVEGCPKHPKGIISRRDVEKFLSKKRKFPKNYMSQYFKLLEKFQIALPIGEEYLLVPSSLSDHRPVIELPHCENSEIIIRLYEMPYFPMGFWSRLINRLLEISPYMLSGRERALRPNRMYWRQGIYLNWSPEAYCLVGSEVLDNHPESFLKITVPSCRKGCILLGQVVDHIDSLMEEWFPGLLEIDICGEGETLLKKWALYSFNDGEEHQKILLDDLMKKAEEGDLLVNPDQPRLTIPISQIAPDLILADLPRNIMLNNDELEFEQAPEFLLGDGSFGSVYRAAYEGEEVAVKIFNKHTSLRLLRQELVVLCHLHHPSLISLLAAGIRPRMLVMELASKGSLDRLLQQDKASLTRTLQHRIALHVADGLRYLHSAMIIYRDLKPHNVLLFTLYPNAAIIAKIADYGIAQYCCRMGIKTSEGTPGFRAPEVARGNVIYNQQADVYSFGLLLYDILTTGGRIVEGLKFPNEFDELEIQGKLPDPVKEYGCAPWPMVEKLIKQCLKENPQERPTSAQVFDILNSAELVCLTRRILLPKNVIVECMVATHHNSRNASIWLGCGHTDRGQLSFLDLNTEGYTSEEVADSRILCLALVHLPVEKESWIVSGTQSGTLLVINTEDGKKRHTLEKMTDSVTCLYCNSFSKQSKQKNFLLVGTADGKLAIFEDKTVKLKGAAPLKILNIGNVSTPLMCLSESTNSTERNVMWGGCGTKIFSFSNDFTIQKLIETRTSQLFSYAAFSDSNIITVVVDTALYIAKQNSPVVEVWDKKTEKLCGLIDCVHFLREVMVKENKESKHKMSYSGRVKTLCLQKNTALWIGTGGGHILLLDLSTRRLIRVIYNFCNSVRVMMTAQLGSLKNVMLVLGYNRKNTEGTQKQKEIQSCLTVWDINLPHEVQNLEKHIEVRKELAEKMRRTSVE
Sequence of Cyclin-dependent kinase 5/CDK5 activator 1 (Q00535 whole entry): as the sequence (Q00535 whole entry) above
Sequence of Cyclin-dependent kinase 5/CDK5 activator 1 (Q15078 whole entry, further chain): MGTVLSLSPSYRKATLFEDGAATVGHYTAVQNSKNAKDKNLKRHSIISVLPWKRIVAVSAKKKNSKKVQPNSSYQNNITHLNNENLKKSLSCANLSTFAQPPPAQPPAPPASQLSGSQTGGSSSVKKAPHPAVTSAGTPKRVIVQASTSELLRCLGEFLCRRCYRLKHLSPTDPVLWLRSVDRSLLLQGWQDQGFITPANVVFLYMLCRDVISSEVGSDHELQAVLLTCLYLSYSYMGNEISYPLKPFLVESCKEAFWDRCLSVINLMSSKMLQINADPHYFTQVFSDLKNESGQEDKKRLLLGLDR
Sequence of Serine/threonine-protein kinase PAK 1 (Q13153 whole entry): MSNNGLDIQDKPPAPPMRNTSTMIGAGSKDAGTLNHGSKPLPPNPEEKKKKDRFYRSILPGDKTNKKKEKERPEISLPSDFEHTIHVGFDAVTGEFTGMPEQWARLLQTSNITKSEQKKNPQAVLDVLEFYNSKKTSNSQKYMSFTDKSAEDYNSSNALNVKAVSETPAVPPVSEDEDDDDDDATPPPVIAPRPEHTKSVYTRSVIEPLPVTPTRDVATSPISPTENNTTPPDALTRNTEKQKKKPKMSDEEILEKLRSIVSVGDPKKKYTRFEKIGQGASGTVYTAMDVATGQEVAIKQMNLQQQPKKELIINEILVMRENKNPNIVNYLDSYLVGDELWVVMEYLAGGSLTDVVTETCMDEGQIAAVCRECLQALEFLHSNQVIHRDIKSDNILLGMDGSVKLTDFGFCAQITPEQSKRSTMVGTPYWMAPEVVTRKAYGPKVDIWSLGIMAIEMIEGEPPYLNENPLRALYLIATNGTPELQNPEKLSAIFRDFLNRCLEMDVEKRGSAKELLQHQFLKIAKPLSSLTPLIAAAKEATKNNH
Sequence of Mitogen-activated protein kinase 14 (Q16539 whole entry): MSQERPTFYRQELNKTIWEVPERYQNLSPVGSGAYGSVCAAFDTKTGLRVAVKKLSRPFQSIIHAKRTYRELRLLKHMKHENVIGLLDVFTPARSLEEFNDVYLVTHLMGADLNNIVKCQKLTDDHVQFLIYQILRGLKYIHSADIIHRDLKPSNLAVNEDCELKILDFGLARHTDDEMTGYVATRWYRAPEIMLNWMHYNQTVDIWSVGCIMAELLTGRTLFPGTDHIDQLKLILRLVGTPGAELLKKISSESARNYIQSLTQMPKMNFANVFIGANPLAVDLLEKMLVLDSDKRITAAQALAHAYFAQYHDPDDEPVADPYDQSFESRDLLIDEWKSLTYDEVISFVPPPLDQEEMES

Consider `O=C(Cc1ccc2c(c1)OCCO2)Nc1cc(-c2ccccc2)[nH]n1`, for which the inhibition in [1] was above 90%. In addition, the “fold change (FC)” value with MIA PaCa-2 [2] is reported as below 2.

As for `Cc1cc(NC(=O)C/C=C/c2ccccc2)n[nH]1`, the inhibition in assay [1] was above 90%. The “fold change (FC)” value in the assay with MIA PaCa-2 [2] was below 2.

As for `O=C(Cc1ccc2c(c1)OCCO2)Nc1cc(C2CCC2)[nH]n1`, in assay [1], the inhibition is above 90%. The “fold change (FC)” value in the assay on MIA PaCa-2 [2] was below 2.

Take `Cc1cc(NC(=O)Cc2ccc3c(c2)OCCO3)n[nH]1`: the inhibition in [1] was above 90%. Further, the “fold change (FC)” value in the assay with MIA PaCa-2 [2] is below 2.

With `Cc1cc(NC(=O)Cc2ccc3ccccc3c2)n[nH]1`, in [1], the inhibition was above 90%. Also, the “fold change (FC)” value in the assay on MIA PaCa-2 [2] was below 2.

`O=C(C/C=C/c1ccccc1)Nc1cc(C2CCCC2)[nH]n1`: in assay [1], the inhibition was above 90%. Further, in the assay on MIA PaCa-2 [2], the “fold change (FC)” value is below 2.

On to `COc1ccc(CC(=O)Nc2n[nH]c3ccccc23)cc1OC`, for which, in [1], the inhibition was above 90%. For the same compound, in the assay on MIA PaCa-2 [2], the “fold change (FC)” value was below 2.

On to `O=C(Cc1ccc(-c2ccccc2)cc1)Nc1cc(C2CCC2)[nH]n1`, for which the inhibition in [1] was above 90%. Further, the “fold change (FC)” value in the assay with MIA PaCa-2 [2] was above 2. For the same compound, the IC50 in the assay on ASPC1 stood at 0.315 µM; in the assay on MIA PaCa-2 [3] it was 0.247 µM; in assay [4] it was 0.209 µM; in [5], 0.192 µM; in assay [6], 0.024 µM; in [7], 0.023 µM. Further, the IC50 in assay [8] is 0.911 µM; in [9] it was above 10 µM; in [10], above 10 µM; against Aurora kinase A, above 10 µM; against Aurora kinase B, above 10 µM; in [11] it was above 10 µM. Further, the IC50 in assay [12], in [13], in [14], in [15], in [16] and in assay [17] was above 10 µM throughout. In addition, the Ratio IC50 in the assay filed under Homo sapiens [18] and in the assay filed under Homo sapiens [19] was above 35 throughout.

For `O=C(Cc1ccc2c(c1)OCCO2)Nc1cc(C2CCCC2)[nH]n1`, in assay [1], the inhibition was above 90%. Besides, the “fold change (FC)” value in the assay with MIA PaCa-2 [2] is listed as below 2.

In the case of `O=C(Cc1ccc2ccccc2c1)Nc1cc(C2CC2)n[nH]1`, in assay [1], the inhibition is above 90%. Further, the “fold change (FC)” value in the assay on MIA PaCa-2 [2] was below 2.

`O=C(C/C=C/c1ccccc1)Nc1n[nH]c2ccccc12`: the inhibition in [1] was above 90%. Also, the “fold change (FC)” value in the assay on MIA PaCa-2 [2] was below 2.

`O=C(C/C=C/c1ccccc1)Nc1cc(C2CCC2)[nH]n1`: the inhibition in [1] is above 90%. Further, in the assay with MIA PaCa-2 [2], the “fold change (FC)” value is given as above 2. Moreover, the IC50 with ASPC1 is above 2 µM; in the assay on BXPC-3, above 2 µM; in the assay on MIA PaCa-2 [3] it was 1.56 µM; in assay [4], above 2 µM; in [5] it was 1.47 µM.

With `COc1ccc(CC(=O)Nc2cc(C3CCC3)[nH]n2)cc1OC`, in assay [1], the inhibition was above 90%. In the assay on MIA PaCa-2 [2], the “fold change (FC)” value is on record as below 2.

On to `O=C(NC1CCNCC1)c1n[nH]cc1NC(=O)c1c(Cl)cccc1Cl` [AT-7519], for which the IC50 was found to be 0.64 µM in the assay on BXPC-3, 0.411 µM in the assay with MIA PaCa-2 [3], 0.557 µM in [4] and 2.77 µM in assay [5].

As for `O=C(Cc1ccc2ccccc2c1)Nc1cc(C2CCC2)[nH]n1`, in [1], the inhibition is above 90%. The “fold change (FC)” value in the assay with MIA PaCa-2 [2] is above 2. Further, the IC50 in the assay on ASPC1 was 1.16 µM; in the assay on BXPC-3, above 2 µM; in assay [4], above 2 µM; in [5], 0.875 µM.
